A word on the melting point: it is the temperature of the solid-liquid transition.

Where only a bound is given, the exact number is not on record here.

This note sets out measurements from a melting point compilation (Tetko et al.; mined from patent text by program, amines drawn as free bases though some values may be those of a salt).

As to `Cc1ncc(CO)c(NCc2ccc(-c3ccccc3-c3nnnn3C(c3ccccc3)(c3ccccc3)c3ccccc3)cc2)n1`, the melting point fell in the range of 112 to 114 °C.

`C=CCn1c(C)nc2c3c(ccc21)[C@@H](OCCF)[C@H](O)[C@@H](c1ccccc1)O3` came in with a melting point of 117 °C.

`Cc1ccc(Nc2nc(-c3ccccc3)cs2)nc1` returned a melting point of 260 to 264 °C.

The compound `CCC1(CO)COC2(CC(c3ccccc3)SC(c3ccccc3)C2)OC1` (configuration not stated) yielded a melting point of 128 °C.

Regarding `COC(=O)C(OCc1ccc(-c2ccc(Cl)cc2)cc1)(C(F)(F)F)C(F)(F)F`, the melting point lay within 61.5 to 62.5 °C.

For the compound `CC(Oc1cccnc1)C(=O)Nc1ccc(C(=O)Nc2ccccc2N)cc1` (configuration not stated), the melting point was 193 to 196 °C.

Take `O=C1C=C(c2ccccc2)C(=Nc2ccccc2)N1`: the melting point is 180 to 183 °C.

Regarding `Nc1ncccc1C(=O)NCC1CCN(C[C@H]2COc3cccc(Cl)c3O2)CC1`, the melting point was in the range of 62 to 70 °C.

Consider `CC(C)(C)OC(=O)N1CCC(COc2ccc([N+](=O)[O-])cc2)CC1`, for which the melting point lay within 130 to 131 °C.

As to `CS(=O)(=O)c1ccc(-c2nc3n(c2-c2ccncc2)CCC3)cc1`, the melting point is 222 to 224 °C.

Compound `COC(=O)NC1=NCC(c2ccccc2F)N1C` (configuration not stated) showed a melting point of 153 to 155 °C.

For `CC1(C)Oc2ccc(S(=O)(=O)Nc3ccccc3)cc2C(N2CCCCC2=O)C1O` (configuration not stated), the melting point lay in the range of 272 to 276 °C.

The compound `OC1CSC(Oc2cccc(-c3cccc(Cl)n3)c2)C(O)C1O` (configuration not stated) gave a melting point of 180 to 222 °C.

In turn, `CCOC(=O)c1nn(Cc2ccccc2F)c2ncccc12` registered a melting point of 85 °C.

`O=C1Nc2cc(C(F)(F)F)cnc2C1C(=O)OCc1ccccc1` (configuration not stated): the melting point is above 250 °C.

Compound `O=C(C=Cc1ccc(CNC2CC2)cc1)Nc1ccc(-c2ccc(Cl)cc2)cc1` had a melting point of 222 to 223 °C.

With `CC(CCC(=O)C(C)(C)OO)C1CCC2C3CC=C4CC(OC5CCCCO5)CCC4(C)C3CCC12C` (configuration not stated), the melting point lay within 130 to 131 °C.

With `ClCCOc1ccc2c(c1)CCC2`, the melting point lay in the range of 45 to 46 °C.

`CNc1nc(N)nc(OCC(F)(F)F)n1`: the melting point was 204 to 205 °C.

With `CN1CCN(c2ccc(-c3ccc4c(c3)C=C(C(=O)Nc3ccc(CN(C)C5CCOCC5)cc3)CCO4)cc2)CC1`, the melting point was 220 to 221 °C.

With `CCOC(=O)C1Cc2cc3c(-c4ccccc4F)noc3cc2O1` (configuration not stated), the melting point lay in the range of 115 to 116 °C.

Consider `O=C(CCCN1CCN(c2ccc(CO)c(Cl)c2)CC1)c1cccs1`, for which the melting point was 131 to 133 °C.

Consider `N#CCSc1nc2ccc(Cl)nc2s1`, for which the melting point was in the range of 112 to 114 °C.

In the case of `Cn1cc(C(=O)NCc2ccc(Cl)cc2)c(=O)c2cc(CN3CCOCC3)cc(C#CCN3CCC(O)C3)c21` (configuration not stated), the melting point was 144 to 146 °C.

`COc1ccc2c(c1)CCC1=C2CCC2(C(C)C)C(=O)CCC12` (configuration not stated) gave a melting point of 85 to 100 °C.

With `COc1ccccc1N1CCN(CC(O)CCN2C(=O)c3ccccc3C2=O)CC1` (configuration not stated), the melting point lay in the range of 192 to 194 °C.

In the case of `O=C(c1ccc(C2CCCCC2)cc1)N1Cc2ccc(C(=O)C(Cl)(Cl)Cl)n2Cc2ccccc21`, the melting point is 172 to 174 °C.

As for `O=c1[nH]ccc2c1C(c1cccc([N+](=O)[O-])c1)N=C(c1ccccc1)N2` (configuration not stated), the melting point was 206 to 207 °C.

`Cc1ccc2c(c1)C=Cc1ncccc1C2c1c[nH]c(=O)[nH]c1=S` (configuration not stated) gave a melting point above 250 °C.

In turn, `CC(C)NC1=Nc2cccnc2SC1` came in with a melting point of 135 to 139 °C.

For `CCOC(=O)C1=C(C)NC(c2cscn2)=NC1c1ccccc1F` (configuration not stated), the melting point fell in the range of 126 to 128 °C.

On to `COc1ccc(-c2cc(=O)n(Cc3ccc(Cl)cc3Cl)nc2-c2ccc(OC)cc2)cc1`, for which the melting point worked out at 141 °C.

Compound `COc1ccc(C(=O)Nc2ccc(C(C)(C)CNC(=O)c3cnc4[nH]ccc4c3)cc2)cc1OC` registered a melting point of 256 to 258 °C.

As for `O=C(N[C@H]1CCc2ccc(O)cc2C1)[C@H](O)c1ccc(OCc2ccccc2)cc1`, the melting point was 137 to 139 °C.

`CCOc1cc2ncc(C#N)c(Nc3ccc4c(=O)[nH][nH]c(=O)c4c3)c2cc1OCC` showed a melting point above 270 °C.

Turning to `O=CC(=Cc1ccccc1OCc1ccc(Br)cc1)C(C=O)=Cc1ccccc1OCc1ccc(Br)cc1`, the melting point was in the range of 210 to 211 °C.

Compound `COc1cc(N2CCOCC2)ccc1Nc1ncc2cc3ccccc3n2n1` displayed a melting point of 169 to 173 °C.

`NC(=O)N(c1ccc(C(F)(F)F)cc1)c1nc(Cl)cc(Cl)n1` yielded a melting point of 99 to 101 °C.

The compound `COc1cccc(C=CC(=O)C=Cc2cccc(OC)c2)c1` returned a melting point of 52 to 54 °C.

On to `CCOc1ccc(-c2ccc(C#N)cc2)cc1C=O`, for which the melting point fell in the range of 110 to 121 °C.

As for `Cc1cc(OC/C=C/c2ccc(C(C)C)cc2)c(C)c(C)c1NC=O`, the melting point lay within 165 to 167 °C.

For `CC(=O)OC1COC(n2c(Br)nc3cc(Cl)c(Cl)cc32)C(OC(C)=O)C1OC(C)=O` (configuration not stated), the melting point lay within 100 to 110 °C.

On to `COC(=O)CCSc1c(C(N)=O)sc2ccc(OC)cc12`, for which the melting point was 142 to 144 °C.

Take `CS(=O)(=O)c1ccc(-n2nc(C(F)(F)F)cc2-c2ccc(-c3cscn3)cc2)cc1Cl`: the melting point was 103 to 107 °C.

Consider `N#CCOc1ccc(Cl)c(Cl)c1`, for which the melting point lay within 61 to 62 °C.

Consider `CN(C)c1ccc(-c2nc(Cl)c(C#N)n2Cc2ccccc2)cc1`, for which the melting point was in the range of 125 to 127 °C.

Turning to `CCNC(=O)c1cccc(F)c1N`, the melting point is 60 °C.

The compound `O=C1CCn2ncnc2N1` showed a melting point of 276 to 280 °C.

The compound `COc1ccc(-c2nc(C#N)cn2-c2ccc(OC)cc2)cc1` registered a melting point of 132 to 134 °C.

On to `Cc1cc(C#N)cc(C(=O)NCC2CC2)c1NC(=O)c1cc(C(F)(F)F)nn1-c1ncccc1Cl`, for which the melting point was 235 to 236 °C.

Take `CC(C)(Oc1ccc(CC(=O)Nc2cc(Cl)cc(Cl)c2)cc1)C(=O)O`: the melting point is 138 °C.

The compound `COc1ccc(C(O)(Cc2ccncc2)c2ccncc2)cc1OC1CCCC1` (configuration not stated) returned a melting point of 99 to 103 °C.

`CC(C)(C)OC(=O)CC(NC(=O)C1CCCN2C(=O)CCC(NC(=O)c3ccccc3)C(=O)N12)C(O)COCc1c(Cl)cccc1Cl` (configuration not stated) came in with a melting point of 106 to 110 °C.

For `N#CCNCNCC#N`, the melting point lay in the range of 83 to 85 °C.

`CCCc1c(OCC2Cc3cc(CC(=O)OC)cc(F)c3O2)ccc(C(C)=O)c1O` (configuration not stated) came in with a melting point of 80 to 82 °C.

`CCS(=O)(=O)CCn1c(=N)sc2cc(C(F)(F)C(F)(F)F)ccc21` yielded a melting point of 125 °C.

As to `COc1ccc(-c2cc3c(N4CCc5ccccc54)ncnc3[nH]2)cc1`, the melting point is above 300 °C.

With `O=Cc1coc2ccc(OCc3ccccc3)cc2c1=O`, the melting point was 163 to 166 °C.

Consider `O=c1c2cc(-c3nnn[nH]3)ccc2sc2ncccc12`, for which the melting point was above 300 °C.

For `NS(=O)(=O)c1cccc(NC(=O)c2cnn3c(C(F)F)cc(-c4ccc(C(F)(F)F)cc4)nc23)c1`, the melting point came to 258 °C.

In turn, `O=C(c1ccccc1)c1ccc(OCCCCOc2ccc(C(=O)c3ccccc3)cc2)cc1` gave a melting point of 163 to 164 °C.

`O=C(O)CN1C(=O)C(=Cc2ccc(-c3ccccc3)cc2)SC1=S` came in with a melting point of 258 to 262 °C.

For the compound `FC(F)(F)c1cc(Br)cc(C(F)(F)F)n1`, the melting point was 92 to 95 °C.

Take `CCCC(CCC)C(=O)NC1CCc2ccccc21` (configuration not stated): the melting point is 133 to 134 °C.

With `Cc1cccc2c1CCC(=O)C2(O)C(F)(F)F` (configuration not stated), the melting point was in the range of 122 to 123 °C.

Take `[N-]=[N+]=NCCOc1ccc(F)c2c1CC(=O)N2`: the melting point was in the range of 147 to 148 °C.

In turn, `COc1cc2c(cc1C#N)C1(CO2)C(=O)Nc2ccccc21` (configuration not stated) gave a melting point of 185 to 186 °C.

Take `COc1ccc(/C=C/C(=O)c2ccc(CC3SC(=O)NC3=O)cc2)cc1` (configuration not stated): the melting point was in the range of 177 to 180 °C.

On to `Cc1nc2ccc3c(c2o1)OC(CNC1CCC(c2c[nH]c4ccc(F)cc24)C1)CO3` (configuration not stated), for which the melting point is 79 to 82 °C.

Regarding `COc1cn(C)cc(-c2cccc(C(F)(F)F)c2)c1=O`, the melting point lay in the range of 173 to 175 °C.

The compound `COC(=O)c1ccc(SCc2c(O[C@H](Cn3ccnc3)c3ccccc3)ccc3c2CCCC3=O)cc1` displayed a melting point of 75 °C.

As to `CCOC(=O)c1nc(SC)nc(OC)c1OCc1ccccc1`, the melting point fell in the range of 48 to 49 °C.

Consider `COc1nc(NC(COC(=O)NC(C)C)C(C)(C)C)nc(OC)c1[N+](=O)[O-]` (configuration not stated), for which the melting point turned out to be 110 °C.

With `CCCCCC(C)N(Cc1ccc(OCCC(C)C)cc1)C(Nc1ccc(OC)cc1OC)=C1C(=O)COC1=O` (configuration not stated), the melting point fell in the range of 125 to 127 °C.

`CCSN(C)C(=O)Nc1ccc(OC)c(Cl)c1` showed a melting point of 60 °C.

Take `CS(=O)(=O)Nc1ccc(C(=O)C2CCN(CCc3cn4ccccc4n3)CC2)cc1`: the melting point fell in the range of 190 to 191 °C.

Consider `Cc1cc(C)c(S(=O)(=O)N(C)O)c(C)c1`, for which the melting point was in the range of 83 to 84 °C.

Turning to `CCOC(=O)C1(O)COc2cc3ccc(=O)[nH]c3cc2C1=O` (configuration not stated), the melting point is above 300 °C.

Regarding `Nc1nc(-c2ccc(Cl)cc2)cc(C2CCN(C(=O)c3ccccc3)CC2)n1`, the melting point fell in the range of 129 to 130 °C.

For the compound `O=C(c1cccc2nc3n(c12)CCCN3c1ccc(Cl)cc1Cl)C1CC1`, the melting point lay within 189 to 190 °C.

In turn, `COCCOc1ccc(CCCNS(=O)(=O)c2cccc(Cl)c2)c(Oc2ncc(C(F)(F)F)cc2Cl)c1` came in with a melting point of 110 to 114 °C.

`C[C@H](C#Cc1scc(Cc2ccc(F)cc2)c1Cc1ccc(F)cc1)N(O)C(N)=O` displayed a melting point of 128 to 130 °C.

Compound `CCCCCOc1ccc(-c2ccc(-c3ccc(C(=O)OC)cc3)cc2)cc1` registered a melting point of 248 °C.

In turn, `CCCCC(=O)c1c(CN(CC)C(C)(C)C)nc2cc(OC)c(OC)cc2c1-c1ccc(OC)c(OC)c1` had a melting point of 137 to 139 °C.

The compound `CNC(=O)C(=NO)c1ccccc1Oc1ccccc1` showed a melting point of 183 to 184 °C.

`CC(C)NC(=O)c1ccc(N2CCC(N3C(=O)OCc4ccccc43)CC2)c(S(C)(=O)=O)c1` gave a melting point of 240 to 242 °C.

In the case of `CC(C)COC(=O)N1CCC(c2ccc(COc3ccc(S(C)(=O)=O)cc3)nc2)CC1`, the melting point was in the range of 114 to 117 °C.
